Settings in all cases: 72 h
Test [1] has as its system Calu-3. The test is described as follows: cell viability relative to DMSO; higher = less toxic.
In test [2] the test system is U2OS. The description is as above.
For test [3], the system named is Caco-2. The description is as above.
The subject of test [4] is Vero E6. The description is as above.
Test [5] has as its system Calu-3. Description: relative viability EC50 (midpoint between 100% and the lowest measured viability); higher = less toxic.
Test [6] concerns U2OS. Described as above.
Test [7] concerns Caco-2. The description is as above.
Test [8] concerns Vero E6. The test is described as above.
Test [9] deals with Calu-3. The test is described as follows: drug sensitivity score (DSS) for viability; higher = more toxic; extreme values may be limits of the assay.
The test system of test [10] is U2OS. The test is described as above.
Test [11] concerns Caco-2. The description is as above.
Test [12] deals with Vero E6. Described as above.
For test [13], the system named is HepG2. Described as above.
The subject of test [14] is HepG2. Description: cell viability relative to DMSO; higher = less toxic.

For orientation: cell viability means a read-out of living cells in per cent, often relative to untreated cells.

The structures appear in SMILES notation.

On to `CC(O)CN1CCN(CC(=O)[O-])CCN(CC(=O)[O-])CCN(CC(=O)[O-])CC1.[Gd+3]` (stereo not drawn) [gadoteridol], for which the cell viability in the test with Calu-3 [1] (1 nM) is 101%; in the test with Calu-3 [1] (10 nM) it was 91.2%; in the test on Calu-3 [1] (100 nM), 95.3%; in the test on Calu-3 [1] (1000 nM), 102%; in the test on Calu-3 [1] (10000 nM), 96.1%; with U2OS [2] (1 nM), 93.2%. In addition, the cell viability in the test on U2OS [2] (10 nM) stood at 103%; in the test with U2OS [2] (100 nM), 98.5%; in the test with U2OS [2] (1000 nM), 99.1%; in the test on U2OS [2] (10000 nM), 103%; in the test with Caco-2 [3] (1 nM), 103%; with Caco-2 [3] (10 nM) it was 110%. Besides, the cell viability stood at 96% in the test with Caco-2 [3] (100 nM); 142% with Caco-2 [3] (1000 nM); 92.1% in the test on Caco-2 [3] (10000 nM); 94.7% with Vero E6 [4] (1 nM); 93.1% in the test with Vero E6 [4] (10 nM); 110% in the test with Vero E6 [4] (100 nM). Moreover, the cell viability with Vero E6 [4] (1000 nM) is 93.1%; in the test on Vero E6 [4] (10000 nM), 105%. Further, the “relative viability EC50” value in the test on Calu-3 [5], in the test on U2OS [6], in the test on Caco-2 [7] and in the test with Vero E6 [8] was more than 10 µM each time. In addition, the drug sensitivity score in the test on Calu-3 [9], in the test with U2OS [10], in the test on Caco-2 [11] and in the test with Vero E6 [12] was 0 in each case.
As to `COc1c(N2C[C@@H]3CCCN[C@@H]3C2)c(F)cc2c(=O)c(C(=O)O)cn(C3CC3)c12` [moxifloxacin], the drug sensitivity score in the test on Calu-3 [9], in the test with U2OS [10], in the test on HepG2 [13] and in the test on Vero E6 [12] was 0 in each case.
Turning to `CNC(=O)COC(=O)NCCC1CCN(c2cccc(C)n2)CC1` [SA-47], the cell viability in the test on Calu-3 [1] (1 nM) came to 98.4%; with Calu-3 [1] (10 nM), 101%; in the test on Calu-3 [1] (100 nM), 105%; with Calu-3 [1] (1000 nM) it was 103%; in the test on Calu-3 [1] (10000 nM), 105%; in the test with U2OS [2] (1 nM), 92.8%. In addition, the cell viability is 101% in the test on U2OS [2] (10 nM); 103% in the test with U2OS [2] (100 nM); 97.7% in the test on U2OS [2] (1000 nM); 99.2% in the test on U2OS [2] (10000 nM); 90.7% with Caco-2 [3] (1 nM); 101% in the test with Caco-2 [3] (10 nM). The cell viability with Caco-2 [3] (100 nM) turned out to be 97.7%; in the test on Caco-2 [3] (1000 nM) it was 99.3%; with Caco-2 [3] (10000 nM), 94%; with Vero E6 [4] (1 nM) it was 85.7%; with Vero E6 [4] (10 nM), 97.6%; in the test on Vero E6 [4] (100 nM), 90.7%. Moreover, the values for the cell viability with Vero E6 [4] (1000 nM) and with Vero E6 [4] (10000 nM) were 92.7% and 110%, respectively. The “relative viability EC50” value in the test on Calu-3 [5], in the test with U2OS [6], in the test on Caco-2 [7] and in the test on Vero E6 [8] was more than 10 µM throughout. The drug sensitivity score in the test with Calu-3 [9], in the test on U2OS [10], in the test with Caco-2 [11] and in the test with Vero E6 [12] was 0 each time.
For `CCOC(=O)c1ccc(OCCC2CCN(c3ccc(C)nn3)CC2)cc1` [pirodavir], the drug sensitivity score in the test with Calu-3 [9], in the test on U2OS [10], with HepG2 [13] and in the test with Vero E6 [12] was 0 throughout.
Take `COc1cc2/c(=N/c3ccc(Br)cc3F)nc[nH]c2cc1OCC1CCN(C)CC1` [vandetanib]: the cell viability in the test with Calu-3 [1] (1 nM) came out at 101%; with Calu-3 [1] (10 nM), 95.3%; in the test with Calu-3 [1] (100 nM), 85.7%; in the test on Calu-3 [1] (1000 nM), 66.2%; in the test with Calu-3 [1] (10000 nM) it was 13.4%; in the test with HepG2 [14] (1 nM) it was 113%. Also, the cell viability was 106% with HepG2 [14] (10 nM); 110% in the test with HepG2 [14] (100 nM); 96.7% with HepG2 [14] (1000 nM); 74% in the test on HepG2 [14] (10000 nM); 109% in the test with Caco-2 [3] (1 nM); 105% in the test with Caco-2 [3] (10 nM). In addition, the cell viability in the test with Caco-2 [3] (100 nM) came out at 86%; in the test with Caco-2 [3] (1000 nM) it was 88.4%; in the test with Caco-2 [3] (10000 nM) it was 57.2%; in the test on Vero E6 [4] (1 nM), 104%; in the test with Vero E6 [4] (10 nM), 100%; in the test with Vero E6 [4] (100 nM) it was 98.3%. In addition, the results for the cell viability in the test on Vero E6 [4] (1000 nM) and in the test on Vero E6 [4] (10000 nM) were 72.9% and 20.6%, respectively. Also, the “relative viability EC50” value stood at 1.24 µM with Calu-3 [5] and 1.3 µM in the test on Vero E6 [8]. Further, the drug sensitivity score is 8.7 with Calu-3 [9], 1.5 with HepG2 [13], 3.3 with Caco-2 [11] and 8.2 in the test on Vero E6 [12].
As to `Cc1cc(O)c(C(=O)N[C@@H](C(=O)N[C@@H]2C(=O)N3C(C(=O)O)=C(CSc4nnnn4C)CS[C@H]23)c2ccc(O)cc2)cn1` [cefpiramide], the cell viability in the test on Calu-3 [1] (1 nM) turned out to be 99%; with Calu-3 [1] (10 nM), 102%; in the test with Calu-3 [1] (100 nM), 108%; in the test on Calu-3 [1] (1000 nM), 106%; in the test with Calu-3 [1] (10000 nM), 98%; in the test on U2OS [2] (1 nM), 93.4%. In addition, the cell viability came to 98.3% with U2OS [2] (10 nM); 96.5% with U2OS [2] (100 nM); 99.5% in the test with U2OS [2] (1000 nM); 101% in the test with U2OS [2] (10000 nM); 94.2% in the test on Caco-2 [3] (1 nM); 106% in the test with Caco-2 [3] (10 nM). Further, the cell viability was 116% with Caco-2 [3] (100 nM); 110% in the test on Caco-2 [3] (1000 nM); 95.3% with Caco-2 [3] (10000 nM); 101% in the test on Vero E6 [4] (1 nM); 94.1% in the test on Vero E6 [4] (10 nM); 100% in the test on Vero E6 [4] (100 nM). In addition, the cell viability came out at 104% in the test with Vero E6 [4] (1000 nM) and 96.3% in the test on Vero E6 [4] (10000 nM). Further, the “relative viability EC50” value with Calu-3 [5], in the test on U2OS [6], in the test with Caco-2 [7] and in the test on Vero E6 [8] was more than 10 µM throughout. The drug sensitivity score with Calu-3 [9], in the test on U2OS [10], with Caco-2 [11] and in the test with Vero E6 [12] was 0 each time.

Source of the values: the supplement of paper PMC13380429.
